“And” between values parts separate entries of the source, which are not always exact repeats. Equal values may be shown once. Toxic doses and inconclusive results are not listed.

The assay relates to BDF1 mice, Lewis lung carcinoma iv, survival T/C. The experiment in a line: NCI In Vivo Anticancer Drug Screen. Data for tumor model Lewis Lung Carcinoma (intravenous) in B6D2F1 (BDF1) mice. As to conditions: endpoint: median survival time, higher = longer survival. As for the experimental part: The antitumor activity of compounds was measured in mice bearing transplantable tumors. Survival or tumor size were measured and the results are expressed as the measurement made in the treated group (T) divided by the measurement made in the vehicle treated control group (C). The tumor model used in this assay is Lewis Lung Carcinoma (intravenous) in B6D2F1 (BDF1) mice

The mark [1] stands for this setting: dose: 12.5 mg/kg/injection, schedule: Q01DX009 (ip), vehicle: saline.
[2] abbreviates: dose: 25.0 mg/kg/injection, schedule: Q01DX009 (ip), vehicle: saline.
[3] abbreviates: dose: 50.0 mg/kg/injection, schedule: Q01DX009 (ip), vehicle: saline.
Setting [4] is: dose: 100.0 mg/kg/injection, schedule: Q01DX009 (ip), vehicle: saline.
[5] abbreviates: dose: 2.0 mg/kg/injection, schedule: Q01DX009 (ip), vehicle: saline.
Where [6] appears, read: dose: 4.0 mg/kg/injection, schedule: Q01DX009 (ip), vehicle: saline.
Setting [7] is: dose: 12.5 mg/kg/injection, schedule: Q01DX009 (ip), vehicle: saline with Tween-80.
Setting [8] is: dose: 25.0 mg/kg/injection, schedule: Q01DX009 (ip), vehicle: saline with Tween-80.
Setting [9] is: dose: 50.0 mg/kg/injection, schedule: Q01DX009 (ip), vehicle: saline with Tween-80.
Setting [10] is: dose: 100.0 mg/kg/injection, schedule: Q01DX009 (ip), vehicle: saline with Tween-80.
Setting [11] is: dose: 200.0 mg/kg/injection, schedule: Q01DX009 (ip), vehicle: saline with Tween-80.
Where [12] appears, read: dose: 3.12 mg/kg/injection, schedule: Q01DX009 (ip), vehicle: Klucel (hydroxypropylcellulose) (HPC).
Where [13] appears, read: dose: 6.25 mg/kg/injection, schedule: Q01DX009 (ip), vehicle: Klucel (hydroxypropylcellulose) (HPC).
[14] abbreviates: dose: 12.5 mg/kg/injection, schedule: Q01DX009 (ip), vehicle: Klucel (hydroxypropylcellulose) (HPC).
Where [15] appears, read: dose: 25.0 mg/kg/injection, schedule: Q01DX009 (ip), vehicle: Klucel (hydroxypropylcellulose) (HPC).
Setting [16] is: dose: 50.0 mg/kg/injection, schedule: Q01DX009 (ip), vehicle: Klucel (hydroxypropylcellulose) (HPC).

Take `O=S(=O)(O)O.[NH-]C1CCCCC1[NH-].[Pt+2]` (centres undefined): the T/C (dose: 0.63 mg/kg/injection, schedule: Q01DX009 (ip), vehicle: dextrose) is 101 % of control and the T/C (dose: 1.25 mg/kg/injection, schedule: Q01DX009 (ip), vehicle: dextrose) was 110 % of control.

As for `CCCC(=O)O`, the T/C is 93 % of control under setting [1], 104 % of control under setting [2], 95 % of control under setting [3] and 112 % of control under setting [4].

On to `Cc1c(N)nc([C@H](CC(N)=O)NC[C@H](N)C(N)=O)nc1C(=O)N[C@H](C(=O)N[C@H](C)[C@@H](O)[C@H](C)C(=O)N[C@H](C(=O)NCCc1nc(-c2nc(C(=O)NCCC[S+](C)C)cs2)cs1)[C@@H](C)O)C(OC1OC(CO)C(O)C(O)C1OC1OC(CO)C(O)C(OC(N)=O)C1O)c1cnc[nH]1` (some centres undefined), for which the T/C is, setting by setting: under setting [5], 113 % of control; under setting [6], 115 % of control; (dose: 12.0 mg/kg/injection, schedule: Q04DX003 (ip), vehicle: saline) 105 % of control and 115 % of control; (dose: 18.0 mg/kg/injection, schedule: Q04DX003 (ip), vehicle: saline) 115 % of control (2×) and 116 % of control; (dose: 27.0 mg/kg/injection, schedule: Q04DX003 (ip), vehicle: saline) 109 % of control; (dose: 40.0 mg/kg/injection, schedule: Q04DX003 (ip), vehicle: saline) 113 % of control. In addition, the T/C (dose: 60.0 mg/kg/injection, schedule: Q04DX003 (ip), vehicle: saline) is 115 % of control.

For the compound `COc1ccc2c(c1)/C(=C/CCN(C)C)c1ccccc1S2`, the T/C by setting is: (dose: 6.25 mg/kg/injection, schedule: Q01DX009 (ip), vehicle: saline) 114 % of control; under setting [1], 98 % of control and 105 % of control; under setting [2], 106 % of control and 110 % of control.

Consider `CC1(c2ccc(Cl)cc2)OC(=O)C(=Cc2ccc([N+](=O)[O-])s2)C(=O)O1` (centres undefined), for which the T/C reads like this: under setting [7], 100 % of control; under setting [8], 100 % of control; under setting [9], 99 % of control; under setting [10], 98 % of control.

As to `CCCCCCCCCCCCCCCCCC1=NC(C)CC(C)(C)O1` (centres undefined), the T/C was 106 % of control under setting [9], 103 % of control under setting [10] and 98 % of control under setting [11].

Take `Nc1nc2c(c(=O)[nH]1)NC(CCNc1ccc(C(=O)NC(CCC(=O)O)C(=O)O)cc1)CN2` (centres undefined): the T/C runs as follows: under setting [2], 111 % of control; under setting [3], 103 % of control; under setting [4], 117 % of control.

In the case of `CC/C(=C(/CC)c1ccc(O)cc1)c1ccc(O)cc1`, the T/C runs as follows: (dose: 12.5 mg/kg/injection, schedule: Q01DX009 (ip), vehicle: water) 123 % of control; (dose: 25.0 mg/kg/injection, schedule: Q01DX009 (ip), vehicle: water) 102 % of control; (dose: 50.0 mg/kg/injection, schedule: Q01DX009 (ip), vehicle: water) 102 % of control; (dose: 100.0 mg/kg/injection, schedule: Q01DX009 (ip), vehicle: water) 106 % of control; (dose: 200.0 mg/kg/injection, schedule: Q01DX009 (ip), vehicle: water) 120 % of control.

`NC(Cc1cc([N+](=O)[O-])ccc1CN(CCCl)CCCl)C(=O)O` (centres undefined): the T/C is 102 % of control (dose: 3.24 mg/kg/injection, schedule: Q04DX003 (ip), vehicle: Klucel (hydroxypropylcellulose) (HPC)); 115 % of control (dose: 5.4 mg/kg/injection, schedule: Q04DX003 (ip), vehicle: Klucel (hydroxypropylcellulose) (HPC)); 102 % of control (dose: 15.0 mg/kg/injection, schedule: Q04DX003 (ip), vehicle: Klucel (hydroxypropylcellulose) (HPC)).

`CC1CN1C(=O)NCCCCCCNC(=O)N1CC1C` (centres undefined): the T/C (dose: 2.5 mg/kg/injection, schedule: Q01DX009 (ip), vehicle: saline + alcohol) is 111 % of control.

Take `CCc1c(CC(=O)O)c2cc(C)ccc2n1Cc1ccc(Cl)cc1`: the T/C runs as follows: under setting [12], 110 % of control; (dose: 3.13 mg/kg/injection, schedule: Q01DX009 (ip), vehicle: Klucel (hydroxypropylcellulose) (HPC)) 119 % of control; under setting [13], 105 % of control and 108 % of control; under setting [14], 100 % of control and 117 % of control; under setting [15], 91 % of control and 99 % of control; under setting [16], 95 % of control and 119 % of control. The T/C (dose: 100.0 mg/kg/injection, schedule: Q01DX009 (ip), vehicle: Klucel (hydroxypropylcellulose) (HPC)) was 112 % of control and 88 % of control.

In the case of `CN(Cc1cnc2nc(N)nc(N)c2n1)c1c(Cl)cc(C(=O)NC(CCC(=O)O)C(=O)O)cc1Cl` (centres undefined), the T/C under setting [14] was 96 % of control, the T/C under setting [15] is 93 % of control and the T/C under setting [16] is 98 % of control.

For `N#CC(=C1SCS1)[N+](=O)[O-]`, the T/C is 94 % of control (dose: 0.75 mg/kg/injection, schedule: Q01DX009 (ip), vehicle: saline with Tween-80); 102 % of control (dose: 1.5 mg/kg/injection, schedule: Q01DX009 (ip), vehicle: saline with Tween-80); 102 % of control (dose: 3.0 mg/kg/injection, schedule: Q01DX009 (ip), vehicle: saline with Tween-80); 92 % of control (dose: 6.0 mg/kg/injection, schedule: Q01DX009 (ip), vehicle: saline with Tween-80).

Turning to `CC(C#N)(C#N)N=Nc1ccc(Cl)cc1Cl`, the T/C reads like this: under setting [7], 105 % of control; under setting [8], 94 % of control; under setting [9], 92 % of control; under setting [10], 103 % of control; under setting [11], 95 % of control; (dose: 400.0 mg/kg/injection, schedule: Q01DX009 (ip), vehicle: saline with Tween-80) 101 % of control.

As for `C/C(=N\NC(N)=O)c1cccc(/C(C)=N/NC(N)=O)n1`, the T/C by setting is: (dose: 6.25 mg/kg/injection, schedule: Q01DX009 (ip), vehicle: saline with Tween-80) 104 % of control; under setting [7], 100 % of control; under setting [8], 98 % of control; under setting [9], 103 % of control; under setting [10], 106 % of control.

With `OCCNCCNc1ccnc2cc(Cl)ccc12`, the T/C runs as follows: under setting [1], 115 % of control; under setting [2], 94 % of control; under setting [3], 107 % of control; under setting [4], 98 % of control.

With `N[C@@H](Cc1ccc(N(CCCl)CCCl)cc1)C(=O)O`, the T/C (dose: 0.25 mg/kg/injection, schedule: Q01DX009 (ip), vehicle: saline) was 92 % of control; the T/C (dose: 0.5 mg/kg/injection, schedule: Q01DX009 (ip), vehicle: saline) was 99 % of control and 102 % of control and 103 % of control; the T/C (dose: 1.0 mg/kg/injection, schedule: Q01DX009 (ip), vehicle: saline) is 104 % of control and 105 % of control and 109 % of control; the T/C (dose: 1.95 mg/kg/injection, schedule: Q04DX003 (ip), vehicle: saline) was 92 % of control; the T/C under setting [5] is 96 % of control and 110 % of control and 117 % of control; the T/C (dose: 3.24 mg/kg/injection, schedule: Q04DX003 (ip), vehicle: saline) was 98 % of control. The T/C reads like this: (dose: 3.4 mg/kg/injection, schedule: Q04DX003 (ip), vehicle: saline) 100 % of control; under setting [6], 112 % of control and 114 % of control; (dose: 4.9 mg/kg/injection, schedule: Q04DX003 (ip), vehicle: saline) 106 % of control; (dose: 5.4 mg/kg/injection, schedule: Q04DX003 (ip), vehicle: saline) 100 % of control; (dose: 8.0 mg/kg/injection, schedule: Q01DX009 (ip), vehicle: saline) 113 % of control; (dose: 9.0 mg/kg/injection, schedule: Q04DX003 (ip), vehicle: saline) 154 % of control. Besides, where the note is “dose: 14.3 mg/kg/injection, schedule: Q04DX003 (ip), vehicle: saline”, the T/C is 122 % of control.

`CC(=O)O[C@@H]1CO[C@H]2O[C@H]3[C@@H](C(C=O)=C[C@H](O)[C@@H]4C5=C(C(C)C)CC[C@]5(C)CC[C@@]34C)[C@@]2(O)C1=O`: the T/C is, setting by setting: (dose: 0.75 mg/kg/injection, schedule: Q01DX009 (ip), vehicle: Klucel (hydroxypropylcellulose) (HPC)) 96 % of control; (dose: 1.5 mg/kg/injection, schedule: Q01DX009 (ip), vehicle: Klucel (hydroxypropylcellulose) (HPC)) 107 % of control.

With `[N-]=[N+]=C1N=CN=C1c1ncn[nH]1`, the T/C is 98 % of control under setting [12]; 100 % of control under setting [13]; 95 % of control under setting [14]; 120 % of control under setting [15]; 97 % of control under setting [16].

For the origin of these results see PubChem BioAssay AID274 (DTP/NCI, 2004).
